Laboratory results: patent US12516056B2, “Compounds for inhibition of janus kinase 1” (MANKIND PHARMA LTD., priority 2019, dated 2026)
Where a name gives a salt, the structure may show the parent alone.

Legend:
[1] = target: T1, Recombinant JAK1 (Homo sapiens, UniProt P23458); assay: JAK biochemical assay (LANCE Ultra TR-FRET), JAK1; conditions: recombinant JAK1, TR-FRET; read-out: Biochemical Assay (μM) JAK1
T1 construct: purchased Carna Biosciences
Experimental: (§1) Recombinant JAK1, JAK2, JAK3 and TYK2 (Carna Biosciences) were used to develop biochemical assays in 50 mM HEPES pH 7.5, 1 mM EGTA, 10 mM MgCl2, 2 mM DTT and 0.01% Tween-20. […] The intensity of the light emission is proportional to the level of ULight substrate phosphorylation. Compounds which interfere with JAK enzyme activity show a lesser substrate phosphorylation and values are projected in terms of % inhibition in comparison to vehicle control.

[2] = target: T2, Recombinant JAK3 (Homo sapiens, UniProt P52333); assay: JAK biochemical assay (LANCE Ultra TR-FRET), JAK3; conditions: recombinant JAK3, TR-FRET; read-out: Biochemical Assay (μM) JAK3
T2 construct: purchased Carna Biosciences
T2 sequence (P52333 1-1124): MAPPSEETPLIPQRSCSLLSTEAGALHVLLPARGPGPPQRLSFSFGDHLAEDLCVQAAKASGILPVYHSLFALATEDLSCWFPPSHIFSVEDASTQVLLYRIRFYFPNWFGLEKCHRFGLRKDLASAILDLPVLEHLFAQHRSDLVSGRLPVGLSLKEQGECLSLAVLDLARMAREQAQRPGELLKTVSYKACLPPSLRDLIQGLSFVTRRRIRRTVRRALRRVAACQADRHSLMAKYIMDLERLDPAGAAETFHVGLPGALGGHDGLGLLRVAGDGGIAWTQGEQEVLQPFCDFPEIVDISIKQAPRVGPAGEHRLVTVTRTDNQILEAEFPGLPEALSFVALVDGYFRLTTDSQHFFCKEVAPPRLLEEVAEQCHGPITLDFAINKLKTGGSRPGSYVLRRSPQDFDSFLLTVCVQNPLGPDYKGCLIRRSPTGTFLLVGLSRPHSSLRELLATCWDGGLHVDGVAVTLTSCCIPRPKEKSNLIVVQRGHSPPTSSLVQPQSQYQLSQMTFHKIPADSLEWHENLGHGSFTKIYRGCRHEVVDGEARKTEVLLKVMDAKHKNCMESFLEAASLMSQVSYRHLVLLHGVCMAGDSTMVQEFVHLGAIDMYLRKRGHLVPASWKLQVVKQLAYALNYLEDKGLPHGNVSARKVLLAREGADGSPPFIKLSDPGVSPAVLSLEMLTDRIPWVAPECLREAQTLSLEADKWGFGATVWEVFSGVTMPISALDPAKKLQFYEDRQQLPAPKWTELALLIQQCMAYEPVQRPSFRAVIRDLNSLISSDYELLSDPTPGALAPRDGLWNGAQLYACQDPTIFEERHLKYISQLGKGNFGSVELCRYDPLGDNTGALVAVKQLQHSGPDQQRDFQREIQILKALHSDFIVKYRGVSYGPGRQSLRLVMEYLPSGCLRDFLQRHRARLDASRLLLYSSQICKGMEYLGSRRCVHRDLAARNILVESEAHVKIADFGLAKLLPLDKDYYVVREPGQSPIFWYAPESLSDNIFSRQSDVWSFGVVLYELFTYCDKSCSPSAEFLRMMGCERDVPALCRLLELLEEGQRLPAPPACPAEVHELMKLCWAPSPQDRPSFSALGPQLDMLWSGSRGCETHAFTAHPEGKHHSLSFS
Experimental: as §1

[3] = target: T3, Recombinant JAK2 (Homo sapiens, UniProt O60674); assay: JAK biochemical assay (LANCE Ultra TR-FRET), JAK2; conditions: recombinant JAK2, TR-FRET; read-out: Biochemical Assay (μM) JAK2
T3 construct: purchased Carna Biosciences
Experimental: as §1

[4] = target: T4, Recombinant TYK2 (Homo sapiens, UniProt P29597); assay: JAK biochemical assay (LANCE Ultra TR-FRET), TYK2; conditions: recombinant TYK2, TR-FRET; read-out: Biochemical Assay (μM) TYK2
T4 construct: purchased Carna Biosciences
Experimental: as §1

T1 sequence (P23458 whole entry): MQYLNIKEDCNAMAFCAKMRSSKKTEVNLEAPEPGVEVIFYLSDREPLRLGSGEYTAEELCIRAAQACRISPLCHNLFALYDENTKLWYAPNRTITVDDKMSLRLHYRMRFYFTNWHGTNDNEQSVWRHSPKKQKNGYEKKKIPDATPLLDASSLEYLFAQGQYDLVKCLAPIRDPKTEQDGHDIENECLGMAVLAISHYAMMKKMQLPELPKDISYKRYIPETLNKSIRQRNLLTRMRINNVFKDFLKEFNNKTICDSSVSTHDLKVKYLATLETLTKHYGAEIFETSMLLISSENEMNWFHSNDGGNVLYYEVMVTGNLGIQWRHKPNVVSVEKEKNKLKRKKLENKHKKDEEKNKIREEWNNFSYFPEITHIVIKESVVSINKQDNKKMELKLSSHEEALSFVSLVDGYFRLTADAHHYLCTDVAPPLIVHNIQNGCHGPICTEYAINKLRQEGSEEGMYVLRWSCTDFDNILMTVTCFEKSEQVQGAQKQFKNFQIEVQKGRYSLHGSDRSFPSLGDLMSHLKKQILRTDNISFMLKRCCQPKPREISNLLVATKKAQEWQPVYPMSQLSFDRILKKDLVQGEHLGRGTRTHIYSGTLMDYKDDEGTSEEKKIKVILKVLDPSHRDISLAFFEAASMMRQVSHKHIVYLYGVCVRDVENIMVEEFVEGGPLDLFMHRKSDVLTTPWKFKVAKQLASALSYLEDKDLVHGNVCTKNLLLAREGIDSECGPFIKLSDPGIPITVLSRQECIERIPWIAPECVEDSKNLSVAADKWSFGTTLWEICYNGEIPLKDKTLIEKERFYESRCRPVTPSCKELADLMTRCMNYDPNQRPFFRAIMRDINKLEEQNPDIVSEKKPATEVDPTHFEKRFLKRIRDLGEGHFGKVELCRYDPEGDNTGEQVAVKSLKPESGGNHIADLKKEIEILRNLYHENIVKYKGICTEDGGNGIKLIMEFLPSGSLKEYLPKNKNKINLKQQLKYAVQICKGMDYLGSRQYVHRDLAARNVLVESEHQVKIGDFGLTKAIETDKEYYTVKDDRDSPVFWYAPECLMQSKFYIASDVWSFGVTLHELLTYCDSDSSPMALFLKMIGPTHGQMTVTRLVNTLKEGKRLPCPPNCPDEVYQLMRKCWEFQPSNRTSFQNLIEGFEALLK
T3 sequence (O60674 whole entry): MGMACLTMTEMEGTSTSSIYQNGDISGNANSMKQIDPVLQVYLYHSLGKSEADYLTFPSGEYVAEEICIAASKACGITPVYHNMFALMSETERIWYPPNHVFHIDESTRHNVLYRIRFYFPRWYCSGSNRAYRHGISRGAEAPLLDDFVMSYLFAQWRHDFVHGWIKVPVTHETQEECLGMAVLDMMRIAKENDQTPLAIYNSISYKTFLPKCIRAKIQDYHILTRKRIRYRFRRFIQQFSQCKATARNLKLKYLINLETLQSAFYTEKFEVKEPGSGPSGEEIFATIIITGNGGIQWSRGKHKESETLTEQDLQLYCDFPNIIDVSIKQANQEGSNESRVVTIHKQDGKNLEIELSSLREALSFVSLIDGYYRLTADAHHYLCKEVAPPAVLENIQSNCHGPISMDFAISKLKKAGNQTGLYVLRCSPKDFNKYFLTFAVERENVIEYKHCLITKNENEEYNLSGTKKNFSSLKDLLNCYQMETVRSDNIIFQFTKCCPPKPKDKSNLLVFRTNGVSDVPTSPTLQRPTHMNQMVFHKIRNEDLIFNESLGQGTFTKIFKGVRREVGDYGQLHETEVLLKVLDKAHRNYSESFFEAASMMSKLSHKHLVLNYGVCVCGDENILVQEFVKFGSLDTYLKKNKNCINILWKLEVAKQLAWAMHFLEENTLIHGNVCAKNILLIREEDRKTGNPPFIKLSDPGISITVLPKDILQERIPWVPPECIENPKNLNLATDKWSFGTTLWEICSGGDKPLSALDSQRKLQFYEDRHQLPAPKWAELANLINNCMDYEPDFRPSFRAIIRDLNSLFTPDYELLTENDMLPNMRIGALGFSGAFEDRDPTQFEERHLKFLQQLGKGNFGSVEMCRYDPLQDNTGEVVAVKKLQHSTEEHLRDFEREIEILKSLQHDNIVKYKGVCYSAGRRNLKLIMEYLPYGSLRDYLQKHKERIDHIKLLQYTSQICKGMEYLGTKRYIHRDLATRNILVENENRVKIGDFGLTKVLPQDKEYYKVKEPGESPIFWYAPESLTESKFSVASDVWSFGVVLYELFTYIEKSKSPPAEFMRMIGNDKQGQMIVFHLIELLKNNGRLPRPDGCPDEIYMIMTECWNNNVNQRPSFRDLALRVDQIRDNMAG
T4 sequence (P29597 whole entry): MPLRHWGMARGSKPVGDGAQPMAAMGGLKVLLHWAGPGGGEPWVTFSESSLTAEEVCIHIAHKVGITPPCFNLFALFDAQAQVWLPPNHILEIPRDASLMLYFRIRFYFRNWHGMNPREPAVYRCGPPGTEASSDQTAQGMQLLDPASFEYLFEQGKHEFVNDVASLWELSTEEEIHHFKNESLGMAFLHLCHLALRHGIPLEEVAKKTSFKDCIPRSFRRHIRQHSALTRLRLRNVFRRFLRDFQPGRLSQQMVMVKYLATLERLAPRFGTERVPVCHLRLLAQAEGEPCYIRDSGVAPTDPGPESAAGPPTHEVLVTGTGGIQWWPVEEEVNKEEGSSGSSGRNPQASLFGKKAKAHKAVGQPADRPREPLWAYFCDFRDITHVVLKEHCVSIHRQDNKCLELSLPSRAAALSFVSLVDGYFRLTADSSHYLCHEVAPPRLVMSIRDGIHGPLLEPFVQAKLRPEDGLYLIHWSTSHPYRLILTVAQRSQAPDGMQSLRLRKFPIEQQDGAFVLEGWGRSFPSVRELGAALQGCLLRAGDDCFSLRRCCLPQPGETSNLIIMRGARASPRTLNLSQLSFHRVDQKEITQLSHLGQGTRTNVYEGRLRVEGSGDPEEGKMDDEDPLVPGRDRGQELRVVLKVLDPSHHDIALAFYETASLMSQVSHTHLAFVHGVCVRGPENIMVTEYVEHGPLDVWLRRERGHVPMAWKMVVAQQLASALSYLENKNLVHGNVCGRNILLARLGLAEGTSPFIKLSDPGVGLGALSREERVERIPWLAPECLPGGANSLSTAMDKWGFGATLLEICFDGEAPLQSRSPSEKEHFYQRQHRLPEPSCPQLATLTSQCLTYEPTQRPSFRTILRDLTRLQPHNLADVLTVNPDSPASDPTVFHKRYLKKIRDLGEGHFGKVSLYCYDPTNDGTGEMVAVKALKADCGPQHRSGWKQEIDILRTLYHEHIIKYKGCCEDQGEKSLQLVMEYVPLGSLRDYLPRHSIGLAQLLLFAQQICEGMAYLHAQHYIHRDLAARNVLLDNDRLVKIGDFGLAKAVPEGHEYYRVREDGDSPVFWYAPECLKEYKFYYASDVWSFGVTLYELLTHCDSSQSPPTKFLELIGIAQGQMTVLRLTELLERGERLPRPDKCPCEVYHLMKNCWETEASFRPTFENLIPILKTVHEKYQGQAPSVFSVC

Row | SMILES | IC50 [1] [µM] | IC50 [2] [µM] | IC50 [3] [µM] | IC50 [4] [µM]
1 | Cc1cc(S(C)(=O)=O)ccc1NC(=O)N1CCN(c2ccnc3[nH]c(=O)[nH]c23)CC1 [Example 1024, 4-(2,3-dihydro-2-oxo-1H-imidazo[4,5-b]pyridin-7-yl)-N-(2-methyl-4-(methylsulfonyl)phenyl)piperazine-1-carboxamide] | > 1 | > 1 | > 1 | > 1
2 | Cn1c(=O)[nH]c2nccc(-c3cnn(C(=O)NCC(F)(F)F)c3)c21 [Example 1029, N-(2,2,2-trifluoroethyl)-4-(2,3-dihydro-1-methyl-2-oxo-1H-imidazo[4,5-b]pyridin-7-yl)-1H-pyrazole-1-carboxamide] | > 10 | > 10 | > 10 | > 10
3 | O=C(NCC1CCCC1)n1cc(-c2ccnc3[nH]c(=O)[nH]c23)cn1 [Example 1034, N-(cyclopentylmethyl)-4-(2,3-dihydro-2-oxo-1H-imidazo[4,5-b]pyridin-7-yl)-1H-pyrazole-1-carboxamide] | > 1 | > 10 | > 1 | > 10
4 | N#CCNC(=O)n1cc(-c2ccnc3[nH]c(=O)[nH]c23)cn1 [Example 1035, N-(cyanomethyl)-4-(2,3-dihydro-2-oxo-1H-imidazo[4,5-b]pyridin-7-yl)-1H-pyrazole-1-carboxamide hydrochloride] | > 10 | > 10 | > 10 | > 10
5 | CCn1c(=O)[nH]c2nccc(-c3cnn(C(=O)NCC(F)(F)F)c3)c21 [Example 1042, 4-(1-ethyl-2,3-dihydro-2-oxo-1H-imidazo[4,5-b]pyridin-7-yl)-N-(2,2,2-trifluoroethyl)-1H-pyrazole-1-carboxamide] | > 10 | > 10 | > 1 | > 10

Next, values leading:

Row | IC50 [1] [µM] | IC50 [2] [µM] | IC50 [3] [µM] | IC50 [4] [µM] | SMILES
6 | > 10 | > 10 | > 10 | > 10 | O=C(CN1CCN(c2ccnc3[nH]c(=O)[nH]c23)CC1)NCC(F)(F)F [Example 1025, N-(2,2,2-trifluoroethyl)-2-(4-(2,3-dihydro-2-oxo-1H-imidazo[4,5-b]pyridin-7-yl)piperazin-1-yl)acetamide]
7 | > 1 | > 1 | > 1 | > 1 | O=C(NCC(F)(F)F)n1ccc(-c2ccnc3[nH]c(=O)[nH]c23)c1 [Example 1028, N-(2,2,2-trifluoroethyl)-3-(2,3-dihydro-2-oxo-1H-imidazo[4,5-b]pyridin-7-yl)-1H-pyrrole-1-carboxamide]
8 | > 1 | > 1 | > 1 | > 1 | O=C(CCC(F)(F)F)n1cc(-c2ccnc3[nH]c(=O)[nH]c23)cn1 [Example 1031, 7-(1-(4,4,4-trifluorobutanoyl)-1H-pyrazol-4-yl)-1H-imidazo[4,5-b]pyridin-2(3H)-one]
9 | > 10 | > 10 | > 10 | > 10 | O=C(NCC(F)(F)F)n1cc(-c2cccc3[nH]c(=O)[nH]c23)cn1 [Example 1036, N-(2,2,2-trifluoroethyl)-4-(2,3-dihydro-2-oxo-1H-benzo[d]imidazol-4-yl)-1H-pyrazole-1-carboxamide]
10 | > 1 | > 1 | > 1 | > 1 | O=C1Cc2c(-c3cnn(C(=O)NCC(F)(F)F)c3)ccnc2N1 [Example 1045, N-(2,2,2-trifluoroethyl)-4-(2,3-dihydro-2-oxo-1H-pyrrolo[2,3-b]pyridin-4-yl)-1H-pyrazole-1-carboxamide]
11 | > 0.5 | > 0.5 | > 0.5 | > 1 | N#CCC1CCN(C(=O)n2cc(-c3ccnc4[nH]c(=O)[nH]c34)cn2)C1 (centres unmarked) [Example 1057, 2-(1-(4-(2-oxo-2,3-dihydro-1H-imidazo[4,5-b]pyridin-7-yl)-1H-pyrazole-1-carbonyl)pyrrolidin-3-yl)acetonitrile]
